Experiment [1] deals with Serine/threonine-protein kinase B-raf (Homo sapiens, UniProt P15056, V600E). In words: Inhibition of human BRAF V600E mutant using MEK1 as substrate in presence of [33P]ATP by Hotspot assay.
Experiment [2] concerns the target Mitogen-activated protein kinase 1 (Homo sapiens) (UniProt P28482). Put plainly: Inhibition of human ERK2 at 10 uM using myelin basic protein as substrate in presence of [33P]ATP by Hotspot assay relative to control.
The next experiment deals with MDA-MB-468. In words: Growth inhibition of human MDA-MB-468 cells assessed as cell growth at 0.3 uM incubated for 48 hrs by sulforhodamine B assay relative to control. The class given is functional. The settings on record: MDA-MB-468, 48 h, read-out: Activity.
A further experiment concerns A549. In words: Growth inhibition of human A549/ATCC cells assessed as cell growth at 0.5 uM incubated for 48 hrs by sulforhodamine B assay relative to control. The class given is functional. The note with it: A549, 48 h, read-out: Activity. (The SRB assay estimates cell density from bound dye.)
For a further experiment, the system named is HL-60(TB). Put plainly: Growth inhibition of human HL-60(TB) cells assessed as cell growth at 0.005 uM incubated for 48 hrs by sulforhodamine B assay relative to control. The class given is functional. The settings on record: HL-60, 48 h, read-out: Activity.
A further experiment has as its system NCI/ADR-RES. In words: Growth inhibition of human NCI/ADR-RES cells assessed as cell growth at 0.005 uM incubated for 48 hrs by sulforhodamine B assay relative to control. The class given is functional. The settings on record: read-out: Activity.
Experiment [3] deals with LOX IMVI. In words: Growth inhibition of human LOXIMVI cells assessed as cell growth at 5 uM incubated for 48 hrs by sulforhodamine B assay relative to control. The class given is functional. The note with it: read-out: Activity.
The subject of experiment [4] is 786-0. In words: Growth inhibition of human 786-0 cells assessed as cell growth at 0.5 uM incubated for 48 hrs by sulforhodamine B assay relative to control. The class given is functional. The note with it: 786-0, 48 h, read-out: Activity.
The test system of experiment [5] is BT-549. Put plainly: Growth inhibition of human BT549 cells assessed as cell growth at 5 uM incubated for 48 hrs by sulforhodamine B assay relative to control. The note with it: BT-549, 48 h, read-out: Activity. The class given is functional.
Experiment [6] has as its system BT-549. Put plainly: Growth inhibition of human BT549 cells assessed as cell growth at 0.05 uM incubated for 48 hrs by sulforhodamine B assay relative to control. The class given is functional. The settings on record: BT-549, 48 h, read-out: Activity.
The next experiment has as its system HT-29. In words: Growth inhibition of human HT-29 cells assessed as cell growth at 0.5 uM incubated for 48 hrs by sulforhodamine B assay relative to control. The class given is functional. The note with it: HT-29, 48 h, read-out: Activity.
In another experiment the test system is RXF 393. In words: Growth inhibition of human RXF393 cells assessed as cell growth at 0.05 uM incubated for 48 hrs by sulforhodamine B assay relative to control. The class given is functional. The note with it: RXF 393, 48 h, read-out: Activity.
In experiment [7] the test system is SNB-75. In words: Growth inhibition of human SNB75 cells assessed as cell growth at 0.05 uM incubated for 48 hrs by sulforhodamine B assay relative to control. The class given is functional. The settings on record: SNB-75, 48 h, read-out: Activity.
In a further experiment the test system is KM12. Put plainly: Growth inhibition of human KM12 cells assessed as cell growth at 0.005 uM incubated for 48 hrs by sulforhodamine B assay relative to control. The class given is functional. The settings on record: KM12, 48 h, read-out: Activity.
Experiment [8] concerns 786-0. In words: Growth inhibition of human 786-0 cells assessed as cell growth at 0.05 uM incubated for 48 hrs by sulforhodamine B assay relative to control. The class given is functional. The settings on record: 786-0, 48 h, read-out: Activity.
In another experiment the test system is ACHN. In words: Growth inhibition of human ACHN cells assessed as cell growth at 0.5 uM incubated for 48 hrs by sulforhodamine B assay relative to control. The class given is functional. The note with it: read-out: Activity.
The subject of another experiment is HCC 2998. Put plainly: Growth inhibition of human HCC2998 cells assessed as cell growth at 0.005 uM incubated for 48 hrs by sulforhodamine B assay relative to control. The class given is functional. The settings on record: HCC 2998, 48 h, read-out: Activity.
The test system of a further experiment is SK-MEL-2. In words: Growth inhibition of human SK-MEL-2 cells assessed as cell growth at 0.05 uM incubated for 48 hrs by sulforhodamine B assay relative to control. The class given is functional. The note with it: SK-MEL-2, 48 h, read-out: Activity.
A further experiment has as its system HCT-15. Put plainly: Growth inhibition of human HCT15 cells assessed as cell growth at 0.005 uM incubated for 48 hrs by sulforhodamine B assay relative to control. The class given is functional. The settings on record: HCT-15, 48 h, read-out: Activity.
For a further experiment, the system named is SN12C. In words: Growth inhibition of human SN12C cells assessed as cell growth at 50 uM incubated for 48 hrs by sulforhodamine B assay relative to control. The class given is functional. The settings on record: read-out: Activity.
The subject of the next experiment is SF-539. Put plainly: Growth inhibition of human SF539 cells assessed as cell growth at 0.05 uM incubated for 48 hrs by sulforhodamine B assay relative to control. The class given is functional. The settings on record: SF-539, 48 h, read-out: Activity.
The test system of another experiment is RPMI-8226. Put plainly: Growth inhibition of human RPMI8226 cells assessed as cell growth at 0.05 uM incubated for 48 hrs by sulforhodamine B assay relative to control. The class given is functional. The settings on record: RPMI-8226, 48 h, read-out: Activity.
The next experiment deals with SF-268. In words: Growth inhibition of human SF268 cells assessed as cell growth at 50 uM incubated for 48 hrs by sulforhodamine B assay relative to control. The class given is functional. The settings on record: SF-268, 48 h, read-out: Activity.
In experiment [9] the test system is LOX IMVI. Put plainly: Growth inhibition of human LOXIMVI cells assessed as cell growth at 0.05 uM incubated for 48 hrs by sulforhodamine B assay relative to control. The class given is functional. The settings on record: read-out: Activity.
A further experiment concerns Malme-3M. In words: Growth inhibition of human MALME-3M cells assessed as cell growth at 50 uM incubated for 48 hrs by sulforhodamine B assay relative to control. The settings on record: read-out: Activity. The class given is functional.
In another experiment the test system is DU-145. Put plainly: Growth inhibition of human DU145 cells assessed as cell growth at 5 uM incubated for 48 hrs by sulforhodamine B assay relative to control. The class given is functional. The settings on record: DU-145, 48 h, read-out: Activity.
The subject of experiment [10] is SNB-75. In words: Growth inhibition of human SNB75 cells assessed as cell growth at 50 uM incubated for 48 hrs by sulforhodamine B assay relative to control. The settings on record: SNB-75, 48 h, read-out: Activity. The class given is functional.
A further experiment relates to HOP-62. Put plainly: Growth inhibition of human HOP62 cells assessed as cell growth at 0.05 uM incubated for 48 hrs by sulforhodamine B assay relative to control. The class given is functional. The settings on record: HOP-62, 48 h, read-out: Activity.
The test system of the next experiment is SK-MEL-5. In words: Growth inhibition of human SK-MEL-5 cells assessed as cell growth at 5 uM incubated for 48 hrs by sulforhodamine B assay relative to control. The class given is functional. The settings on record: SK-MEL-5, 48 h, read-out: Activity.
The next experiment deals with CAKI-1. In words: Growth inhibition of human Caki1 cells assessed as cell growth at 0.005 uM incubated for 48 hrs by sulforhodamine B assay relative to control. The class given is functional. The note with it: CAKI-1, 48 h, read-out: Activity.
In another experiment the test system is OVCAR-4. In words: Growth inhibition of human OVCAR4 cells assessed as cell growth at 5 uM incubated for 48 hrs by sulforhodamine B assay relative to control. The class given is functional. The settings on record: OVCAR-4, 48 h, read-out: Activity.
For the next experiment, the system named is SW-620. Put plainly: Growth inhibition of human SW620 cells assessed as cell growth at 0.05 uM incubated for 48 hrs by sulforhodamine B assay relative to control. The class given is functional. The settings on record: SW-620, 48 h, read-out: Activity.
The subject of the next experiment is NCI-H226. Put plainly: Growth inhibition of human NCI-H226 cells assessed as cell growth at 0.5 uM incubated for 48 hrs by sulforhodamine B assay relative to control. The class given is functional. The note with it: NCI-H226, 48 h, read-out: Activity.

Sequence of Mitogen-activated protein kinase 1 (Homo sapiens) (P28482 whole entry): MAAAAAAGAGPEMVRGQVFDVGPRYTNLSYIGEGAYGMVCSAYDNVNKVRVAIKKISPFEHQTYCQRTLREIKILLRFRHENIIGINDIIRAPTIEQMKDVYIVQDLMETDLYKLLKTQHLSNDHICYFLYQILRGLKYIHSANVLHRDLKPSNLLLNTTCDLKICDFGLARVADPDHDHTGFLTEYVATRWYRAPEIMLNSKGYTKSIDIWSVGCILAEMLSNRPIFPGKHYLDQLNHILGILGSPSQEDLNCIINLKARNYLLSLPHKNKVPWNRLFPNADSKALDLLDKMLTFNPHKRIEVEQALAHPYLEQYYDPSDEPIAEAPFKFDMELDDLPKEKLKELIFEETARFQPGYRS
Sequence of Serine/threonine-protein kinase B-raf (P15056 2-766 V600E limits assumed): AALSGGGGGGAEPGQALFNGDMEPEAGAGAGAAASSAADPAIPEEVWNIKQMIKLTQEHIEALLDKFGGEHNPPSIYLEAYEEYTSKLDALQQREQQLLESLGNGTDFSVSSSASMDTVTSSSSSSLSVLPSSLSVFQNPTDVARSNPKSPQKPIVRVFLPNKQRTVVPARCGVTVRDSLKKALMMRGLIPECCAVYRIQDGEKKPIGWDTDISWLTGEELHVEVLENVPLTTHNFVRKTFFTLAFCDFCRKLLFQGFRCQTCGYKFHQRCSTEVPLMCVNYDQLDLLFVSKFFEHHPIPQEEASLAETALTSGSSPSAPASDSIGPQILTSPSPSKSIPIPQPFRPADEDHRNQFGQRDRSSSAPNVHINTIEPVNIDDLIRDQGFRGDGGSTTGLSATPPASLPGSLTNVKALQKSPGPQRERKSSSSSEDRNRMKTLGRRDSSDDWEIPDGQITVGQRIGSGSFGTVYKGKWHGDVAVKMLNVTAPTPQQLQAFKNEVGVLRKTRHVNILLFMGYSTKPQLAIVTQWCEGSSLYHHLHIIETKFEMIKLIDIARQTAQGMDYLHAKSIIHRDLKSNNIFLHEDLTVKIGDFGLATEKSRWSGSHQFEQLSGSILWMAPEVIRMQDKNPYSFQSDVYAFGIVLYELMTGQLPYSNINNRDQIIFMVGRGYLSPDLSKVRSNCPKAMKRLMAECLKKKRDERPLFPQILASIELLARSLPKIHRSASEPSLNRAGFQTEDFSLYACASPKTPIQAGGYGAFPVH

`COc1cc2cc(Oc3ccc(NC(=O)Nc4ccc(Cl)c(C(F)(F)F)c4)cc3)c(C)nc2cc1OC`: the half-maximal inhibitory concentration (IC50) (in general, the concentration needed to halve the response being measured) in [1] was found to be 260 nM. Moreover, the inhibition (commonly the change of the read-out against control, counted positive when it falls) in experiment [2] is 1.04%.
For `Cc1nc2cc(O)c(O)cc2cc1Oc1ccc(NC(=O)Nc2ccc(Cl)c(Cl)c2)cc1`, the growth at 0.3 µM in the experiment with MDA-MB-468 is 99%.
In the case of `COc1cc2cc(Oc3ccc(NC(=O)Nc4cccc(C(F)(F)F)c4)cc3)c(C)nc2cc1OC`, the growth at 0.5 µM came out at 86% in the experiment on A549; 95% in the experiment on 786-0 [4]; 112% with HT-29; 95% in the experiment with ACHN; 108% with NCI-H226. Further, the growth at 0.005 µM is 104% in the experiment on HL-60(TB); 105% in the experiment with NCI/ADR-RES; 90% in the experiment with KM12; 99% in the experiment on HCC 2998; 96% with HCT-15; 98% in the experiment with CAKI-1. Also, the growth at 5 µM in the experiment on LOX IMVI [3] is 14%; in the experiment with BT-549 [5], 7%; in the experiment on DU-145 it was 32%; with SK-MEL-5, -35%; in the experiment on OVCAR-4, 25%. The growth at 0.05 µM amounted to 84% in the experiment with BT-549 [6]; 105% with RXF 393; 99% in the experiment on SNB-75 [7]; 82% in the experiment on 786-0 [8]; 104% in the experiment on SK-MEL-2; 96% in the experiment on SF-539. Besides, the growth at 0.05 µM in the experiment on RPMI-8226 amounted to 96%; in the experiment on LOX IMVI [9] it was 96%; in the experiment on HOP-62, 95%; in the experiment on SW-620 it was 98%. Further, the growth at 50 µM is -21% with SN12C, -32% with SF-268, -60% in the experiment on Malme-3M and -46% in the experiment on SNB-75 [10].

Source of the values: ChEMBL document CHEMBL3994622, “Design and synthesis of new RAF kinase-inhibiting antiproliferative quinoline derivatives. Part 2: Diarylurea derivatives” (Eur J Med Chem, 2017).
